Experimental data from patent US20230372350A1, “ASTROCYTIC TRPA1 CHANNEL INHIBITION AS A NOVEL NEUROPROTECTIVE THERAPEUTIC TARGET IN THE PRODROMAL PHASES OF ALZHEIMER'S DISEASE” (priority 2020, published 2023).

Test system: CA1 pyramidal neurons of APP/PS1-21 and WT mice
Assay: Chronic intraperitoneal treatment: whole-cell recording of sEPSCs of CA1 pyramidal neurons
Assay type: in vivo, mouse
Protocol: The used model is a transgenic murine model obtained on a C57BL/6J genetic background which co-expresses the mutated human form of the amyloid precursor protein (mutated APP KM670/671NL) and of presenilin 1 (mutated PS1 L166P) under the control of the neural promoter Thy1. The presence of these two mutations allows increased production of the Aβ peptide from the 14th postnatal day. This leads to cerebral amyloidosis with the appearance of the first senile plaques around 8 postnatal weeks. This amyloid pathology is accompanied by inflammatory gliosis (microgliosis and astrogliosis detectable from 4 months), dendritic spine dystrophy and tau hyperphosphorylation (around 8 months). Cognitive behavioral disorders, and in particular of learning and spatial memory, are developed in around 6 to 8 months. This model was set-up and described by Rebecca Radde in 2006 (Radde et al., EMBO reports, 2006) and is widely used by the scientific community. This model is available in the animal facility of the Institut des Neurosciences de Grenoble and has been bred by the inventors since 2014. This solution is then diluted to 1 μg/μl in an isotonic solution containing 1% Pluronic F-127 and 0.9% NaCl. The animals are injected daily intraperitoneally at a dose of 5 mg/kg of body mass. Sterile 0.5 ml BD MicroFine syringes with no dead volume, equipped with a 30G (0.3 mm) needle are used for the injections. The carrier (10% DMSO, 1% Pluronic F-127, 0.9% NaCl) is used as a control and is also injected daily, according to the same procedure, into the WT and APP/PS1 control animals (carrier groups). The injection is started from the 14th postnatal day (appearance of the expression of the Thy1gene promoter in the hippocampus, triggering the overexpression of Aβ in the APP/PS1-21 murine model) Coronal sections of the hippocampus (thickness 300 μm) were prepared from APP/PS1-21 transgenic mice (1 month and 3 months old) or from WT mice from the same litter. The mice were sacrificed by decerebration and decapitation. The brain was quickly removed and sectioned in ice-cold ACSF containing (in mM) : 2.5 KCl, 7 MgCl2, 0.5 CaCl2, 1.2 NaHPO4, 25 NaHCO3, 11D-glucose and 234 sucrose bubbled with 95% of O2 and 5% of CO2 with a V[…] vibratome (Leica, Germany). The sections containing the hippocampus were placed in ACSF containing (in mM) : 126 NaCl, 2.5 KCl, 1.2 MgCl2, 2.5 CaCl2, 1.2 NaH2PO4 bubbled with 95% of O2 and 5% of CO2 and supplemented with 1 mM of sodium pyruvate at room temperature for a recovery period. Whole-cell recordings were performed on visually identified CA1 pyramidal neuron somas. The patch pipettes (4-6 MΩ) were filled with an internal solution containing (in mM): 105 K-gluconate, 30 KCL, 10 phosphocreatine, 10 HEPES, 4 ATP-Mg, 0.3 GTP-Tris, 0.3 EGTA, adjusted to pH 7.2 with KOH. Spontaneously excitatory postsynaptic currents (sEPSCs) were collected at a membrane holding potential of -60 mV which is close to the GABA reversal potential. All recordings were made at room temperature (22-24° C.) and only a single neuron was studied per section. The sEPSCs and their kinetics were analyzed, after a stabilization period of 10 minutes, 5 minutes from the recordings. Access resistance was constantly monitored and recordings were excluded from this study when this parameter varied more than 20% during the experiment. Recordings were analyzed using the Clampfit module of pClamp8 software (Molecular Devices, USA) with a single one at 20 pA to exclude miniature sEPSCs.

[1] = APP/PS1-21 mice, 3 months, 5 mg/kg i.p. from 14th postnatal day
[2] = WT mice, 3 months, chronic treatment 5 mg/kg i.p.

CC(C)c1ccc(NC(=O)Cn2cnc3c2c(=O)n(C)c(=O)n3C)cc1 [HC030031, 2-(1,3-Dimethyl-2,6-dioxo-1,2,3,6-tetrahydro-7H-purin-7-yl)-N-(4-isopropylphenyl)acetamide]
sEPSC amplitude (1-month old mice, 5 mg/kg i.p. daily from 14th postnatal day): no impact
amplitude of sEPSCs [1]: 33.4±1.4 pA
frequency of sEPSCs [1]: 0.10±0.01 Hz
frequency of sEPSCs (APP/PS1-21 transgenic mice, 1 month, 5 mg/kg i.p. daily from 14th postnatal day): 0.10±0.02 Hz
frequency of sEPSCs (WT litter mice, 1 month, 5 mg/kg i.p. daily from 14th postnatal day): 0.10±0.04 Hz
amplitude of the sEPSCs [2]: no effect
frequency of the sEPSCs [2]: no effect
